Patent US20230117034A1, “PYRAZOLOTRIAZINES” (Bayer Aktiengesellschaft, priority 2019, published 2023)

Legend:
[1] = tested on: BRCA1 mRNA expression in MDA-MB-231 cells; assay: qRT-PCR assay: BRCA1 mRNA expression in MDA-MB-231; type: cell-based, human; settings: Homo sapiens, MDA-MB-231, Inhibition of BRCA1 mRNA expression in MDA-MB-231 cells; median; read-out: RTqPCR-MDA-MB-231, IC50, BRCA1 (median)
Procedure, shortened: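 BRCA1 transcript by RT-qPCR relative to GAPDH, from 600 ng RNA converted to cDNA. MDA-MB-231 cells plated at 200,000/well received test compound continuously for 24 h, starting 24 h post-seeding.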

CDK2/CycE = molecular target: T1, CDK2/CycE (Homo sapiens, UniProt P24941); assay: CDK2/CycE kinase assay (TR-FRET, 2 mM ATP); type: biochemical; settings: 2 mM ATP (high ATP); median; read-out: CDK2/CyclinE, 2 mM ATP (high ATP), IC50 (median)
T1 construct: purchased ProQinase GmbH (Freiburg, Germany); host or cells: insect cells (Sf9)
Procedure, shortened: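 Biotin-peptide phosphorylation (0.75 µM substrate, 2 mM ATP final, 25 min, 22 °C) by Sf9-expressed GST-CDK2/GST-CycE, after a 15-min compound pre-binding step. Inhibition scaled between enzyme-free (100%) and uninhibited (0%) wells.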

[2] = tested on: CAL-120, human breast adenocarcinoma cells; assay: Proliferation assay CAL-120 (crystal violet, 4 days); type: cell-based; settings: Homo sapiens, CAL-120, 96 h, CAL-120 cells, median, read-out: Prolif-CAL-120, IC50-[mol/l] (median)
Procedure, shortened: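 IC50 from a 4-parameter fit of crystal violet absorbance (595 nm), scaled between the day-of-dosing plate (0%) and vehicle cells (100%). MDA-MB-231 or CAL-120 cells were treated for 4 days with 0.01–10 micromol/L compound in 0.1% DMSO after 24 h attachment.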

OC[C@@H]1CCCCN1c1nc(NCc2nc3ccccc3[nH]2)n2ncc(Br)c2n1 [Example 59, [(2S)-1-(4-{[(1H-benzimidazol-2-yl)methyl]amino}-8-bromopyrazolo[1,5-a][1,3,5]triazin-2-yl)piperidin-2-yl]methanol]
IC50 [1]: 30.5 nM | IC50 (CDK2/CycE): 1.05 µM | IC50 [2]: 12.5 nM

Clc1cc2nc(CNc3nc(N4CCOCC4)nc4c(-c5cncs5)cnn34)[nH]c2cc1Cl [Example 443, N-[(5,6-dichloro-1H-benzimidazol-2-yl)methyl]-2-(morpholin-4-yl)-8-(1,3-thiazol-5-yl)pyrazolo[1,5-a][1,3,5]triazin-4-amine]
IC50 [1]: 2.21 nM | IC50 (CDK2/CycE): > 20 µM | IC50 [2]: 5.31 nM

Brc1cnn2c(NCc3nnc(-c4cccnc4)[nH]3)nc(N3CCOCC3)nc12 [Example 53, 8-bromo-2-(morpholin-4-yl)-N-{[5-(pyridin-3-yl)-4H-1,2,4-triazol-3-yl]methyl}pyrazolo[1,5-a][1,3,5]triazin-4-amine]
IC50 [1]: 77.1 nM | IC50 (CDK2/CycE): 1.68 µM | IC50 [2]: 106 nM

Clc1ccc(-c2nnc(CNc3nc(N4CCOCC4)nc4c(Br)cnn34)[nH]2)cc1 [Example 45, 8-bromo-N-{[5-(4-chlorophenyl)-4H-1,2,4-triazol-3-yl]methyl}-2-(morpholin-4-yl)pyrazolo[1,5-a][1,3,5]triazin-4-amine]
IC50 [1]: 99 nM | IC50 (CDK2/CycE): 5.37 µM | IC50 [2]: 89.1 nM

Cc1cnn2c(NCc3nc4c(F)c(F)ccc4[nH]3)nc(N3CCN(C)CC3)nc12 [Example 394, N-[(4,5-difluoro-1H-benzimidazol-2-yl)methyl]-8-methyl-2-(4-methylpiperazin-1-yl)pyrazolo[1,5-a][1,3,5]triazin-4-amine]
IC50 [1]: 11.4 nM | IC50 (CDK2/CycE): > 20 µM | IC50 [2]: 4.32 nM

FC(F)n1cc(-c2cnn3c(NCc4nc5cc(Cl)c(Cl)cc5[nH]4)nc(N4CCOCC4)nc23)cn1 [Example 423, N-[(5,6-dichloro-1H-benzimidazol-2-yl)methyl]-8-[1-(difluoromethyl)-1H-pyrazol-4-yl]-2-(morpholin-4-yl)pyrazolo[1,5-a][1,3,5]triazin-4-amine]
IC50 [1]: 6.2 nM | IC50 (CDK2/CycE): > 20 µM | IC50 [2]: 12.3 nM

CN(CC(C)(C)O)c1nc(NCc2nc3c(F)c(F)ccc3[nH]2)n2ncc(C(F)(F)F)c2n1 [Example 402, 1-{[4-{[(4,5-difluoro-1H-benzimidazol-2-yl)methyl]amino}-8-(trifluoromethyl)pyrazolo[1,5-a][1,3,5]triazin-2-yl](methyl)amino}-2-methylpropan-2-ol]
IC50 [1]: 3.81 nM | IC50 (CDK2/CycE): 9.56 µM | IC50 [2]: 7.85 nM

FC(F)(F)c1cnn2c(NCc3nnc(-c4ccccc4)[nH]3)nc(N3CCOCC3)nc12 [Example 427, 2-(morpholin-4-yl)-N-[(5-phenyl-4H-1,2,4-triazol-3-yl)methyl]-8-(trifluoromethyl)pyrazolo[1,5-a][1,3,5]triazin-4-amine]
IC50 [1]: 45 nM | IC50 (CDK2/CycE): 5.23 µM | IC50 [2]: 44 nM

FC(F)(F)c1cccc(-c2nnc(CNc3nc(N4CCOCC4)nc4c(Br)cnn34)[nH]2)c1 [Example 52, 8-bromo-2-(morpholin-4-yl)-N-({5-[3-(trifluoromethyl)phenyl]-4H-1,2,4-triazol-3-yl}methyl)pyrazolo[1,5-a][1,3,5]triazin-4-amine]
IC50 [1]: 26 nM | IC50 (CDK2/CycE): 2.65 µM | IC50 [2]: 23.3 nM

N#Cc1cccc(-c2nnc(CNc3nc(N4CCOCC4)nc4c(Br)cnn34)[nH]2)c1 [Example 55, 3-[5-({[8-bromo-2-(morpholin-4-yl)pyrazolo[1,5-a][1,3,5]triazin-4-yl]amino}methyl)-4H-1,2,4-triazol-3-yl]benzonitrile]
IC50 [1]: 4.76 nM | IC50 (CDK2/CycE): 1.07 µM | IC50 [2]: 6.28 nM

CCc1cnn2c(NCc3nc4ccccc4[nH]3)nc(N3CCOCC3)nc12 [Example 431, N-[(1H-benzimidazol-2-yl)methyl]-8-ethyl-2-(morpholin-4-yl)pyrazolo[1,5-a][1,3,5]triazin-4-amine]
IC50 [1]: 4.17 nM | IC50 (CDK2/CycE): 1.59 µM | IC50 [2]: 7.02 nM

OC[C@H]1CCCCN1c1nc(NCc2nc3ccccc3[nH]2)n2ncc(Br)c2n1 [Example 60, [(2R)-1-(4-{[(1H-benzimidazol-2-yl)methyl]amino}-8-bromopyrazolo[1,5-a][1,3,5]triazin-2-yl)piperidin-2-yl]methanol]
IC50 [1]: 45.3 nM | IC50 (CDK2/CycE): 0.738 µM | IC50 [2]: 25.7 nM

FC(F)Cc1cnn2c(NCc3nc4ccccc4[nH]3)nc(N3CCOCC3)nc12.O=C(O)C(F)(F)F [Example 444, trifluoroacetic acid N-[(1H-benzimidazol-2-yl)methyl]-8-(2,2-difluoroethyl)-2-(morpholin-4-yl)pyrazolo[1,5-a][1,3,5]triazin-4-amine]
IC50 [1]: 51.5 nM | IC50 (CDK2/CycE): 15.4 µM | IC50 [2]: 14.9 nM

COc1ccccc1-c1nnc(CNc2nc(N3CCOCC3)nc3c(Br)cnn23)[nH]1 [Example 61, 8-bromo-N-{[5-(2-methoxyphenyl)-4H-1,2,4-triazol-3-yl]methyl}-2-(morpholin-4-yl)pyrazolo[1,5-a][1,3,5]triazin-4-amine]
IC50 [1]: 9.54 nM | IC50 (CDK2/CycE): 9.06 µM | IC50 [2]: 24.3 nM

Clc1cccc(-c2nnc(CNc3nc(N4CCOCC4)nc4c(Br)cnn34)[nH]2)c1 [Example 51, 8-bromo-N-{[5-(3-chlorophenyl)-4H-1,2,4-triazol-3-yl]methyl}-2-(morpholin-4-yl)pyrazolo[1,5-a][1,3,5]triazin-4-amine]
IC50 [1]: 5.8 nM | IC50 (CDK2/CycE): 1.64 µM | IC50 [2]: 9.43 nM

Cc1cnn2c(NCc3nc4c(F)c(F)ccc4[nH]3)nc(N3CC4CCC(C3)N4)nc12 [Example 400, 2-(3,8-diazabicyclo[3.2.1]octan-3-yl)-N-[(4,5-difluoro-1H-benzimidazol-2-yl)methyl]-8-methylpyrazolo[1,5-a][1,3,5]triazin-4-amine]
IC50 [1]: 14 nM | IC50 (CDK2/CycE): > 20 µM | IC50 [2]: 5.23 nM

N#Cc1cnn2c(NCc3nc4ccccc4[nH]3)nc(N3CCOCC3)nc12 [Example 43, 4-{[(1H-benzimidazol-2-yl)methyl]amino}-2-(morpholin-4-yl)pyrazolo[1,5-a][1,3,5]triazine-8-carbonitrile]
IC50 [1]: 69.9 nM | IC50 (CDK2/CycE): > 20 µM | IC50 [2]: 131 nM

FC(F)n1cc(-c2cnn3c(NCc4nc5ccccc5[nH]4)nc(N4CCOCC4)nc23)cn1 [Example 421, N-[(1H-benzimidazol-2-yl)methyl]-8-[1-(difluoromethyl)-1H-pyrazol-4-yl]-2-(morpholin-4-yl)pyrazolo[1,5-a][1,3,5]triazin-4-amine]
IC50 [1]: 74.6 nM | IC50 (CDK2/CycE): > 20 µM | IC50 [2]: 38.3 nM

Fc1cccc2[nH]c(CNc3nc(N4CCN5CCC4CC5)nc4c(C(F)(F)F)cnn34)nc12 [Example 410, 2-(1,4-diazabicyclo[3.2.2]nonan-4-yl)-N-[(4-fluoro-1H-benzimidazol-2-yl)methyl]-8-(trifluoromethyl)pyrazolo[1,5-a][1,3,5]triazin-4-amine]
IC50 [1]: 3.42 nM | IC50 (CDK2/CycE): 10 µM | IC50 [2]: 3.07 nM

N#Cc1cccc(-c2c[nH]c(CNc3nc(N4CCOCC4)nc4c(Br)cnn34)n2)c1 [Example 42, 3-[2-({[8-bromo-2-(morpholin-4-yl)pyrazolo[1,5-a][1,3,5]triazin-4-yl]amino}methyl)-1H-imidazol-4-yl]benzonitrile]
IC50 [1]: 3.4 nM | IC50 (CDK2/CycE): 1.03 µM | IC50 [2]: 1.76 nM

Brc1cnn2c(NCc3nnc(-c4ccccn4)[nH]3)nc(N3CCOCC3)nc12 [Example 54, 8-bromo-2-(morpholin-4-yl)-N-{[5-(pyridin-2-yl)-4H-1,2,4-triazol-3-yl]methyl}pyrazolo[1,5-a][1,3,5]triazin-4-amine]
IC50 [1]: 66.2 nM | IC50 (CDK2/CycE): 1.89 µM | IC50 [2]: 53.8 nM

Fc1ccc2[nH]c(CNc3nc(N4CCOCC4)nc4c(CC(F)F)cnn34)nc2c1F.O=C(O)C(F)(F)F [Example 425, trifluoroacetic acid N-[(4,5-difluoro-1H-benzimidazol-2-yl)methyl]-8-(2,2-difluoroethyl)-2-(morpholin-4-yl)pyrazolo[1,5-a][1,3,5]triazin-4-amine]
IC50 [1]: 2.68 nM | IC50 (CDK2/CycE): > 20 µM | IC50 [2]: 3.06 nM

CC1(C)CN(c2nc(NCc3nc4ccccc4[nH]3)n3ncc(Br)c3n2)CCO1 [Example 58, N-[(1H-benzimidazol-2-yl)methyl]-8-bromo-2-(2,2-dimethylmorpholin-4-yl)pyrazolo[1,5-a][1,3,5]triazin-4-amine]
IC50 [1]: 49 nM | IC50 (CDK2/CycE): 10.7 µM | IC50 [2]: 56.3 nM

Cc1cnn2c(NCc3nc4c(F)c(F)ccc4[nH]3)nc(N3CCOCC3)nc12 [Example 392, N-[(4,5-difluoro-1H-benzimidazol-2-yl)methyl]-8-methyl-2-(morpholin-4-yl)pyrazolo[1,5-a][1,3,5]triazin-4-amine]
IC50 [1]: 2.55 nM | IC50 (CDK2/CycE): > 20 µM | IC50 [2]: 4.73 nM

Fc1ccc2[nH]c(CNc3nc(N4CCOCC4)nc4c(-c5cncs5)cnn34)nc2c1F.O=C(O)C(F)(F)F [Example 442, trifluoroacetic acid N-[(4,5-difluoro-1H-benzimidazol-2-yl)methyl]-2-(morpholin-4-yl)-8-(1,3-thiazol-5-yl)pyrazolo[1,5-a][1,3,5]triazin-4-amine]
IC50 [1]: 0.738 nM | IC50 (CDK2/CycE): > 20 µM | IC50 [2]: 2.61 nM
